molecular target: T1, cDNA, FLJ78895, highly similar to 3-oxo-5-alpha-steroid 4-dehydrogenase 1 (Homo sapiens, UniProt B7Z4L2); experiment: 5α-Reductase Activity Assay; settings: pH 6.5; 37 °C
T1 sequence (B7Z4L2 whole entry): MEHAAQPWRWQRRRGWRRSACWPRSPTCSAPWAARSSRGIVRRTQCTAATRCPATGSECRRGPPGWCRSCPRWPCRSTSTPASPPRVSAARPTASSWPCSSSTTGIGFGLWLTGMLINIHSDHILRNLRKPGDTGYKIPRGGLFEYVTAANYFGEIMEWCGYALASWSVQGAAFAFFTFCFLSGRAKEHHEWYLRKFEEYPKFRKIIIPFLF
Procedure: The reaction mixtures contained a final volume of 1 mL, 1 mM DTT, sodium phosphate buffer 40 mM, at pH 6.5, 2 mM, NADPH, 2 nM [1,2,6,7-3H]T or [1,2,3,7-3H(N)] 4-dione and the prostatic enzyme fractions. The amount of prostatic enzyme fractions was determined to adjust the rate of conversion of T to DHT or 4-dione to 5α-dione to around 28%. T, DHT, unlabeled 4-dione or 5α-dione concentrationswere adjusted to 25-250 nM in the incubating medium, by adding one of the following reagents cold T, DHT, unlabeled 4-dione or 5α-dione. The reactions in duplicate were started when added to the enzymatic fraction (400 μg protein in a volume of 80 μL) incubated at 37°C for 60 min13 and stopped by mixing with 1 mL ofdichloromethane. Incubation without tissue was used as a control. All reactions were carried out in two different times by duplicate.

| SMILES | IC50 |
| --- | --- |
| CC(=O)O[C@]1(C(C)=O)CCC2C3CCC4=CC(=O)CCC4(C)C3CCC21C (some centres not stated) [3,20-Dioxopregn-4-ene-17-yl acetate (4)] | 500 nM |
| CCc1ccc(C(=O)O[C@]2(C(C)=O)CCC3C4CCC5=C(Br)C(=O)CCC5(C)C4CCC32C)cc1 (some centres not stated) [4-Bromo-3,20-dioxopregn-4-ene-17-yl-4-ethylbenzoate (8b)] | 50 nM |
| CC(=O)[C@@]1(O)CCC2C3CCC4=C(Br)C(=O)CCC4(C)C3CCC21C (stereo partly drawn) [4-Bromo-17α-hydroxypregn-4-ene-3,20-dione (7b)] | 1.6 nM |
| CC(=O)[C@@]1(O)CCC2C3CCC4=C(Cl)C(=O)CCC4(C)C3CCC21C (stereo partly drawn) [4-Chloro-17α-hydroxypregn-4-ene-3,20-dione (7a)] | 63 nM |
| CC(=O)[C@@]1(O)CCC2C3CCC4=CC(=O)CCC4(C)C3CCC21C (stereo partly drawn) [17α-Hydroxypregn-4-ene-3,20-dione (5)] | 2 nM |

Continued, values first:

| IC50 | SMILES |
| --- | --- |
| 73 nM | CCc1ccc(C(=O)O[C@]2(C(C)=O)CCC3C4CCC5=C(Cl)C(=O)CCC5(C)C4CCC32C)cc1 (some centres not stated) [4-Chloro-3,20-dioxopregn-4-ene-17-yl-4-ethylbenzoate (8a)] |
| 1.3 nM | CC(C)(C)NC(=O)[C@H]1CC[C@H]2[C@@H]3CC[C@H]4NC(=O)C=C[C@]4(C)[C@H]3CC[C@]12C [4a,6a-Dimethyl-2-oxo-2,4a,4b,5,6,6a,7,8,9,9a,9b,10,11,11a-tetradecahydro-1H-indeno[5,4-f]quinoline-7-carboxylic acid tert-butylamide] |

Source: BindingDB's records for doi:10.3109/14756366.2010.548330 (Metropolitan University-Xochimilco, 2011)
